We go through two molecules from PMC9628989 (Antiviral Research, 2007).

For data set [1] the following is noted: CD-1, mouse, s9, 0 h, pH 7.4.
For data set [2] the following is noted: human, s9, 0 h, pH 7.4.
Data set [3] is described as follows: in vitro. The conditions noted are these: both, human, hepatocytes.
For data set [4] the following is noted: in vivo; cited from earlier work.
The nature of data set [5]: in vitro. The conditions noted are these: both, CD-1, mouse, hepatocytes.
For data set [6] the following is noted: mouse, in vivo, po; cited from earlier work.
The conditions of data set [7]: cynomolgus monkey, s9, 0 h, pH 7.4.
Data set [8] can be described thus: in vitro. The conditions noted are these: cynomolgus monkey, s9, pH 7.4, Half-life.
Data set [9] is described as follows: in vitro. The conditions noted are these: CD-1, mouse, s9, pH 7.4, Half-life.
The conditions of data set [10]: in vivo; cited from earlier work. This is another data set of the same source.

Like-named read-outs stand apart in the source and are kept apart here.

Usually half-life stands for how long it takes for the measured level to halve.

Regarding `CCCCCCCCCCCCCCCCOCCCOP(=O)(O)CO[C@H](CO)Cn1ccc(N)nc1=O` [CMX001, hexadecyloxypropyl ester of CDV], the “Percentage of CMX001 remaining at incubation time point 0 min” value in [1], in data set [2] and in [7] was 100% throughout. The half-life was 3.8 h in “in vitro [3]”, 3.55 h in “in vitro [5]”, 8 min in the data set “in vitro [8]” and > 1.67 h in “in vitro [9]”. In addition, the nephrotoxicity result in data set [4] is “not been shown to cause nephrotoxicity”. In addition, the “orally administered drug accounted for in plasma” value in data set [6] is listed as “approximately 88%”.

Take `Nc1ccn(C[C@@H](CO)OCP(=O)(O)O)c(=O)n1` [CDV, [S]-1-[3-hydroxy-2-phosphonylmethoxypropyl]cytosine]: in data set [10], the oral bioavailability result is listed as “poor oral bioavailability”.
